Data from patent US20210403465A1, “QUINAZOLINYL-INDAZOLE DERIVATIVES AND THEIR USE AS INHIBITORS OF HUMAN IMMUNODEFICIENCY VIRUS REPLICATION” (ViiV HEALTHCARE UK (NO.5) LIMITED, priority 2018, published 2021).

Experiments:
[1] = system: recombinant NL4-3 virus (Renilla luciferase) in MT-2 cells; test: HIV cell culture assay (antiviral activity, luciferase readout in MT-2 cells); assay type: cell-based; details: NL43
Procedure: HIV cell culture assay—MT-2 cells, 293T cells and the proviral DNA clone of NL4-3 virus were obtained from the NIH AIDS Research and Reference Reagent Program. MT-2 cells were propagated in RPMI 1640 media supplemented with 10% heat inactivated fetal bovine serum (FBS), […]. The 293T cells were propagated in DMEM media supplemented with 10% heat inactivated FBS, […]. A recombinant NL4-3 proviral clone, in which a section of the nef gene was replaced with the Renilla luciferase gene, was used to make the reference virus used in these studies. The recombinant virus was prepared through transfection of the recombinant NL4-3 proviral clone into 293T cells using Transit-293 Transfection Reagent from Mirus Bio LLC (Madison, Wis.). Supernatant was harvested after 2-3 days and the amount of virus present was titered in MT-2 cells using luciferase enzyme activity as a marker by measuring luciferase enzyme activity. Luciferase was quantitated using the EnduRen Live Cell Substrate from Promega (Madison, Wis.). Antiviral activities of compounds toward the recombinant virus were quantified by measuring luciferase activity in MT-2 cells infected for 4-5 days with the recombinant virus in the presence of serial dilutions of the compound.
The 50% effective concentration (EC50) was calculated by using the exponential form of the median effect equation where (Fa)=1/[1+(ED50/drug conc.)m] (Johnson V A, Byington R T. Infectivity Assay. In Techniques in HIV Research. ed. Aldovini A, Walker B D. 71-76. New York: Stockton Press. 1990). The 50% inhibitory concentration (EC50) was calculated by using the exponential form of the median effect equation where percent inhibition=1/[1+(EC50/drug concentration)m], where m is a parameter that reflects the slope of the concentration-response curve.

[2] = Compound cytotoxicity, XTT-based colorimetric assay; assay type: cell-based; details: human; uninfected MT2 cells, day 4, XTT
Procedure: Compound cytotoxicity and the corresponding CC50 values were determined using the same protocol as described in the antiviral assay except that uninfected cells were used. Cytotoxicity was assessed on day 4 in uninfected MT2 cells by using a XTT (2,3-bis[2-Methoxy-4-nitro-5-sulfophenyl]-2H-tetrazolium-5-carboxyanilide inner salt)-based colorimetric assay (Sigma-Aldrich, St Louis, Mo.).

Cn1nc(NS(C)(=O)=O)c2c(Cl)ccc(-n3c([C@H](Cc4cc(F)cc(F)c4)NC(=O)Cn4nc(C(F)F)c5c4C(F)(F)[C@@H]4C[C@H]54)nc4cc(OCCC(C)(C)C(F)(F)F)ccc4c3=O)c21 (atropisomer, axis not shown; (P)) [Example 14, N—((S)-1-((3P)-3-(4-chloro-1-methyl-3-(methylsulfonamido)-1H-indazol-7-yl)-4-oxo-7-(4,4,4-trifluoro-3,3-dimethylbutoxy)-3,4-dihydroquinazolin-2-yl)-2-(3,5-difluorophenyl)ethyl)-2-((3bS,4aR)-3-(difluoromethyl)-5,5-difluoro-3b,4,4a,5-tetrahydro-1H-cyclopropa[3,4]cyclopenta[1,2-c]pyrazol-1-yl)acetamide]
EC50 [1]: 0.23 nM
CC50 at 4 days [2]: > 500 nM

Cn1nc(NS(C)(=O)=O)c2c(Cl)ccc(-n3c([C@H](Cc4cc(F)cc(F)c4)NC(=O)Cn4nc(C(F)F)c5c4C(F)(F)[C@@H]4C[C@H]54)nc4cc(OCCOC(F)F)ccc4c3=O)c21 (atropisomer, axis not shown; (P)) [Example 15, N—((S)-1-((3P)-3-(4-chloro-1-methyl-3-(methylsulfonamido)-1H-indazol-7-yl)-7-(2-(difluoromethoxy)ethoxy)-4-oxo-3,4-dihydroquinazolin-2-yl)-2-(3,5-difluorophenyl)ethyl)-2-((3bS,4aR)-3-(difluoromethyl)-5,5-difluoro-3b,4,4a,5-tetrahydro-1H-cyclopropa[3,4]cyclopenta[1,2-c]pyrazol-1-yl)acetamide]
EC50 [1]: 0.051 nM
CC50 at 4 days [2]: > 500 nM
